Assay results as given in US20190275033A1 (Boehringer Ingelheim International GmbH, priority 2016, published 2019).
“Also recorded” adds a separate entry of the source.

What was measured:
[1] = tested on: Bleomycin-induced lung fibrosis in rats; assay: Bleomycin-induced lung fibrosis in rats; format: in vivo
[2] = tested on: Bleomycin-induced lung fibrosis in mice; assay: Bleomycin-induced lung fibrosis in mice; format: in vivo
[3] = tested on: Rheumatoid arthritis and lung fibrosis in SKG mice; assay: Rheumatoid arthritis and lung fibrosis in zymosan-stimulated SKG mice (RA-ILD model)
Description: Whether this inflammation is helpful to resolve the fibrosis or detrimental remains open.
INTRODUCTION: Rheumatoid arthritis preferentially affects women and approximately […] of patients have lung abnormalities and involvement. From this group approximately 20% will develop rheumatoid arthritis-associated interstitial lung disease (RA-ILD).
RATIONALE: SKG mice, genetically prone to develop autoimmune arthritis, also develop a pulmonary interstitial pneumonia that resembles human cellular and fibrotic non-specific interstitial pneumonia.
Inflammation in the lungs was measured by BAL (bronchoalveolar lavage) cellularity and in enzymatically-digested lungs. Arthritis of joints and digits was scored weekly.

[4] = tested on: patients with IPF; conditions: cited from earlier work
[5] = tested on: animal models of SSc and SSc-ILD; assay: Four animal models of SSc and SSc-ILD; format: in vivo
[6] = target: T1, PDGFR-β (Homo sapiens, UniProt P09619); conditions: normal human lung fibroblasts in vitro; cited from earlier work
T1 construct: endogenous in cells; host or cells: normal human lung fibroblasts

[7] = tested on: human lung fibroblast; assay: Human lung fibroblast contraction; format: cell-based; conditions: clinically relevant concentrations
[8] = tested on: animal models of lung fibrosis; assay: Three animal models of lung fibrosis; format: in vivo
[9] = tested on: bleomycin-induced skin fibrosis in mice; conditions: therapeutic nintedanib treatment; cited from earlier work
[10] = tested on: vascular endothelial growth factor receptors (VEGFRs); conditions: preclinical studies; cited from earlier work
[11] = target: T2, PDGFR-α (Homo sapiens, UniProt P16234); conditions: normal human lung fibroblasts in vitro; cited from earlier work
T2 construct: endogenous in cells; host or cells: normal human lung fibroblasts

[12] = tested on: Silica-induced lung fibrosis in mice; assay: Silica-induced lung fibrosis in mice; format: in vivo
[13] = cited from earlier work
[14] = preclinical studies; cited from earlier work
[15] = tested on: platelet-derived growth factor receptors (PDGFRs); conditions: preclinical studies; cited from earlier work
[16] = tested on: dermal fibroblasts from patients with SSc; assay: Dermal fibroblasts from patients with SSc; format: cell-based, human
[17] = tested on: fibroblast growth factor receptors (FGFRs); conditions: preclinical studies; cited from earlier work
[18] = tested on: Skin and lung fibrosis in transgenic Fra-2 mice; assay: Skin and lung fibrosis in transgenic Fra-2 mice (genetic model of SSc-ILD); format: in vivo
Description: Data are shown in Huang et al., Ann. Rheum. Dis. […] Clin. Pract. Rheumatol. 2006; 1:134-44.

[19] = tested on: primary human lung fibroblasts from IPF patients; assay: Fibroblast to myofibroblast transformation of human lung fibroblasts; format: cell-based
Description: Nintedanib also attenuated the transformation of lung fibroblasts to myofibroblasts. Fibroblast proliferation, migration and transformation are fundamental processes in the common final path of several diseases resulting in lung fibrosis such as IPF but also SSc-ILD and RA-ILD.

[20] = tested on: human lung fibroblasts; conditions: cited from earlier work
[21] = tested on: primary human lung fibroblasts from IPF patients; conditions: cited from earlier work
[22] = tested on: lung fibroblasts from patients with IPF; conditions: cited from earlier work
[23] = tested on: mouse models of IPF; conditions: in vivo; cited from earlier work
[24] = tested on: collagen-induced arthritis (CIA); assay: Mouse model of collagen-induced arthritis (CIA); format: in vivo; conditions: treatment started 13 days after induction, continued for 5 weeks
[25] = tested on: IPF patients; conditions: cited from earlier work
[26] = early treatment, developing lung disease
[27] = early treatment, from week 5 after zymosan
[28] = late treatment, week 16, vs saline
[29] = preventive or therapeutic dosing regimen
[30] = human lung fibroblasts from patients with IPF and control donors
[31] = lung fibroblasts from patients with IPF

T1 sequence (P09619 33-1106): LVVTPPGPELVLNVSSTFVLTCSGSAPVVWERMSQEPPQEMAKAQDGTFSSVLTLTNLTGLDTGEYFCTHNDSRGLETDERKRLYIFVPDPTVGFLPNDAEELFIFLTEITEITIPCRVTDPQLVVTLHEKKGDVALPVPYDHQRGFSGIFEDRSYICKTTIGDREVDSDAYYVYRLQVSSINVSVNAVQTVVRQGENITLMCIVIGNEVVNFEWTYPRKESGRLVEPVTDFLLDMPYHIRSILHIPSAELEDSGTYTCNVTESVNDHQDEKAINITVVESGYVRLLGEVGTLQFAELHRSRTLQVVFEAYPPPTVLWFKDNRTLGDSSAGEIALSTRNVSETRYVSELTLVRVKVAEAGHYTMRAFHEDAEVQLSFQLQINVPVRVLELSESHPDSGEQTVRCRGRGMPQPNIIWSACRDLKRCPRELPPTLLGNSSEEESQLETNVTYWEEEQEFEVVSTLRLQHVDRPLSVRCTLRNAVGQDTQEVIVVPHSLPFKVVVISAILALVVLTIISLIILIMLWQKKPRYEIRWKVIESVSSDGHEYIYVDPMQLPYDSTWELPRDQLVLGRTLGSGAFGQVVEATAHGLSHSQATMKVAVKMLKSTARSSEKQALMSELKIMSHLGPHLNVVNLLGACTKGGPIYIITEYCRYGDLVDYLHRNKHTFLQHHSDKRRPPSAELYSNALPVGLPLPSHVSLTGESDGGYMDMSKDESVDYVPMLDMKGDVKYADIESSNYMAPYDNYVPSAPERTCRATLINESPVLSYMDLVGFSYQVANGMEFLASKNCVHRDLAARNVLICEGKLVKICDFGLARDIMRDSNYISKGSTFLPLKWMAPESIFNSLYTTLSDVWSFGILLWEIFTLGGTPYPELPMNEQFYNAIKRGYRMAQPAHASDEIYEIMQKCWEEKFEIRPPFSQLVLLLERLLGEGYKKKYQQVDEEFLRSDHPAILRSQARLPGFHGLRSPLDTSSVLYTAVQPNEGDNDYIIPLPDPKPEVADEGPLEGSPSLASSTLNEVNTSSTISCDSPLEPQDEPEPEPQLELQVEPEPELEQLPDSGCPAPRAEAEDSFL
T2 sequence (P16234 24-1089): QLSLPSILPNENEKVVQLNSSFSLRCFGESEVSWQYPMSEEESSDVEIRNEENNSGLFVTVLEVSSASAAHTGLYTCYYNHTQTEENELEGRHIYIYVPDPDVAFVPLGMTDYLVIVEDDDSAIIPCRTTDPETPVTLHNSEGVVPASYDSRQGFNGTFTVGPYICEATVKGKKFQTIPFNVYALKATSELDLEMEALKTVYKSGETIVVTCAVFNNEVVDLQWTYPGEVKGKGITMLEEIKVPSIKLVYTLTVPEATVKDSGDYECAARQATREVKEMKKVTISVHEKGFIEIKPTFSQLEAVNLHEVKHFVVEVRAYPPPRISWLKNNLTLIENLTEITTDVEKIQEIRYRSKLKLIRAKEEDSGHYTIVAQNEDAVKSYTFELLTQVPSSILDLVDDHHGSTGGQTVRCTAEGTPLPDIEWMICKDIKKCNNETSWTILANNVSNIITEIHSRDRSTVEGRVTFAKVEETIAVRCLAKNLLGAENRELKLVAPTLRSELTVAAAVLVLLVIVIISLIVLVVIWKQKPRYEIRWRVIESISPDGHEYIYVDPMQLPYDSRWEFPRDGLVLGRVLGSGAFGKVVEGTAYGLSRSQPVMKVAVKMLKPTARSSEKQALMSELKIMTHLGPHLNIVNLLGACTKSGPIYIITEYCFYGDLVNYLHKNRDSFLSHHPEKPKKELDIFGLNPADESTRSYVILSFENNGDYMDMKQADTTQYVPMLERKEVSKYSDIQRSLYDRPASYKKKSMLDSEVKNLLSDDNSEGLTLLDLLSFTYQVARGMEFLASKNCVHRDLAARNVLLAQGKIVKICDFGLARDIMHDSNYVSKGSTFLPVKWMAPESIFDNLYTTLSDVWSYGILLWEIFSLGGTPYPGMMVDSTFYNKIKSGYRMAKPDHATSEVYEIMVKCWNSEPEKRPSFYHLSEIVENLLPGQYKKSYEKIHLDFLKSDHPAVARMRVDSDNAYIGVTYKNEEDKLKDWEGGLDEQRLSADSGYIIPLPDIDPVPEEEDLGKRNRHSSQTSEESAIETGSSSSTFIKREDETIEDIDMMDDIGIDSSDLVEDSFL

## COC(=O)c1ccc2c(c1)NC(=O)/C2=C(\Nc1ccc(N(C)C(=O)CN2CCN(C)CC2)cc1)c1ccccc1 [nintedanib, 3-Z-[1-(4-(N-((4-methyl-piperazin-1-yl)-methylcarbonyl)-N-methyl-amino)-anilino)-1-phenyl-methylene]-6-methoxycarbonyl-2-indolinone]
[1]; preventive treatment
  Lung fibrosis (Ashcroft score): score)↓
[1]; therapeutic treatment
  Lung fibrosis (Ashcroft score): score)↓
[2]; preventive treatment
  BALF lymphocytes: cytes↓
  IL-1β: IL-1β↓
  Lung fibrosis: fibrosis↓
  Lung inflammation: mation↓
  TIMP-1: TIMP-1↓
[2]; therapeutic treatment
  BALF lymphocytes: cytes↓
  IL-1β: IL-1β↓
  Lung collgen: collgen↓
  Lung fibrosis: fibrosis↓
  Lung inflammation: mation↓
  TIMP-1: TIMP-1↓
[3]; SKG mice treated with zymosan
  inflammation in the lung: slight but selective inflammation
[3]; early treatment
  Arthritic score: score↓
  Lung tissue B220 + B-cells: B-cells↑
  Lung tissue CD103 + Dendritic cells: cells↑
  Lung tissue Monocytes: Monocytes↓
  Lung tissue Neutrophils: Neutrophils↑
  static lung compliance: ance↑
[3]; [26]
  lymphocytes in the BAL: trend towards increased
  neutrophils in the BAL: trend towards increased
[3]; early treatment, developing lung disease, vs saline
  total number of alveolar macrophages: no significant difference
[3]; [27]
  lung collagen deposition (hydroxyproline): no effect; also recorded: not significantly altered
  static lung compliance (lung function): improved lung function; also recorded: increase in static lung compliance
[3]; early treatment, from week 5 after zymosan (week 5-11), 60 mg/kg daily gavage, vs saline, 60 mg/kg
  arthritis score / joint swelling: attenuated arthritis pathology; also recorded: significant reduction in their development of arthritis; also recorded: significantly reduced; also recorded: reversal of joint swelling
[3]; late (therapeutic) treatment for six weeks, established arthritis
  lung collagen (hydroxyproline) / pulmonary fibrosis: reduction of collagen deposition; also recorded: significant reduction of lung collagen; also recorded: significantly reduces; also recorded: significant decrease
[3]; late treatment
  BAL lymphocytes and neutrophils: neutrophils↑
  Lung hydroxiproline: hydroxiproline↓
  Lung tissue inflammatory macrophages: macrophages↑
[3]; late treatment, established lung disease
  static lung compliance: no significant difference
[3]; late treatment, from week 10 after zymosan (week 10-16), established disease, vs saline
  arthritis score / joint swelling: reduction of the arthritis score if the score was normalized to the last measurement before the start of the nintedanib treatment; also recorded: not altered; also recorded: slightly increased the resolution of joint swelling
[3]; late treatment, vs saline
  alveolar macrophages (BAL): no significant difference
  number of lymphocytes (BAL): small but significant elevation
  number of neutrophils (BAL): small but significant elevation
  total number of BAL cells: no significant difference
[3]; [28]
  percent survival: no significant change
  weight: no significant change
[3]; late treatment, if the data is normalised to the last scoring before the nintedanib treatment starts
  Arthritic score: score↓*
[3]; lungs, six weeks of nintedanib
  B220+ B-cells: small but significant increase
  CD4+ T-cells: small but significant increase
  macrophage numbers: no changes
[3]; nintedanib beginning at week 5
  lung dendritic cells: significant increase
  lung neutrophils: significant increase
[3]; nintedanib beginning at week 11
  increase in lung neutrophils: not at week 11
[4]; INPULSIS and TOMORROW trials, 150 mg twice daily
  efficacy versus placebo: positive results
[4]; both INPULSIS trials, 150 mg twice daily versus placebo
  reduction of the annual rate of decline in FVC (mL/year): approximately 50%
[5]; an animal model of SSc
  number of vascular smooth muscle cells: reducing
  occluded pulmonary vessels: reducing
  pulmonary vascular remodelling: effectively attenuated
[5]; in vivo
  Lung fibrosis: effectively attenuated
  dermal microvascular endothelial cell apoptosis: reduced
  dermal thickening: reduced
  extracellular matrix deposition in skin and lung: reduced
  myofibroblast accumulation in skin and lung: attenuated
  skin fibrosis: effectively attenuated
[6]
  PDGFR-β activation: inhibit
[7]
  human lung fibroblast contraction: inhibits
[8]; in vivo
  accumulation of lymphocytes in the bronchoalveolar lavage fluid (BALF): attenuated
  chemokine CXCL1/KC in lung tissue: reduced
  collagen content in lung tissue: reduced
  interleukin (IL)-10 in lung tissue: reduced
  mRNA expression of procollagen 1: blocked
  mRNA expression of transforming growth factor (TGF)-β1: blocked
  tissue inhibitor of metalloproteinases (TIMP)-1 in lung tissue: reduced
[8]; [29]
  histology score of fibrosis in lung sections: reduced
  histology score of granuloma formation in lung sections: reduced
  histology score of inflammation in lung sections: reduced
[9]
  bleomycin-induced skin fibrosis: attenuation
[10]
  inhibition of VEGFRs: highly potent
[11]
  PDGFR-α activation: inhibit
[12]; preventive treatment
  BALF neutrophils + lymphocytes: cytes↓
  IL-1β: IL-1β↓
  KC: KC↓
  Lung collagen: collagen↓
  Lung fibrosis: fibrosis↓
  Lung inflammation: mation↓
  TIMP-1: TIMP-1↓
[12]; therapeutic treatment
  BALF neutrophils + lymphocytes: cytes↓
  IL-1β: IL-1β↓
  IL-6: IL-6↓
  KC: KC↓
  Lung collagen: collagen↓
  Lung fibrosis: fibrosis↓
  Lung inflammation: mation↓
  TIMP-1: TIMP-1↓
[13]; human, in vivo
  elimination via biliary/faecal excretion: > 90%
[13]; patients with hepatic impairment (Child Pugh A, Child Pugh B)
  exposure: increased
[14]
  oral bioavailability: orally bioavailable
[15]
  inhibition of PDGFRs: highly potent
[16]
  expression of extracellular matrix markers: reduced
  migration: inhibited
  proliferation: inhibited
  transformation to myofibroblast: attenuated
[17]
  inhibition of FGFRs: highly potent
[18]; Fra2+/− mice
  Lung fibrosis: normalises
  lung vascular remodelling: normalises
  skin fibrosis: normalises
[18]; therapeutic treatment
  Dermal thickness: thickness↓
  ECM: ECM↓
  Hydroxiproline: Hydroxiproline↓
  MVEC apoptosis: apoptosis↑
  Occluded vessels: vessels↓
  Skin and lung myofibroblast count: count↓
  VSMC: VSMC↓
  Vessel wall thickness: thickness↓
[19]
  transformation of lung fibroblasts to myofibroblasts: attenuated
[20]
  proliferation of human lung fibroblasts from patients with IPF: inhibited
[20]; [30]
  FGF-2-induced proliferation: inhibit
  VEGF-induced proliferation: inhibit
[20]; in vitro
  proliferation of normal human lung fibroblasts: inhibit
[21]
  TGF-β-induced fibroblast to myofibroblast transformation: inhibited
[22]
  migration of human lung fibroblasts from patients with IPF: inhibited
[22]; [31]
  FGF-2-stimulated migration: attenuated
  PDGF-stimulated migration: attenuated
[23]
  fibrosis in histological analyses: reduced
  granuloma formation in histological analysis of lung tissue: reduced
  inflammation in histological analysis of lung tissue: reduced
  inflammatory cytokines: reductions
  lymphocyte counts in the bronchoalveolar lavage fluid: significant reductions
  neutrophil counts in the bronchoalveolar lavage fluid: significant reductions
  total lung collagen: significant reductions
[24]
  arthritis score: no attenuating effect

## Cc1ccc(=O)n(-c2ccccc2)c1 [pirfenidone, 5-methyl-1-phenyl-2(1H)-Pyridinone]
[25]; ASCEND Phase III trial
  primary endpoint of change from baseline FVC % predicted: met the primary endpoint
[25]; international Phase III CAPACITY program
  primary FVC lung function endpoint: efficacy on the primary FVC lung function endpoint in only one of two confirmatory trials
[25]; two local trials, Japan
  decline of vital capacity: reduced decline
